# Like-named read-outs stand apart in the source and are kept apart here. Marks after values point to notes of the source that are not given here. Where a SMILES comes first, the peptide text is derived from it. Bridges are numbered along the chain shown (N, C = ends). [ ]: non-standard residue; d: D form.
# Legend:
# [1] = Toxicity in Vero cells (MTT assay and manual cell counting); type: cell-based; settings: ‡ non toxic at 1000 μM, read-out: Ctox50
# Description: The toxicity of the beta hairpin peptides was assessed with the MTT (3-(4,5-dimethylthiazol-2-yl)-2,5-diphenyltetrazolium bromide, Invitrogen, USA) assay (Mosmann, T. (1983). J. Immunol. Methods 65, 55-63.), and by manual cell counting using a Neubauer chamber. Ninety-six well plates (Costar, USA) were seeded with 200 μL/well of a suspension containing Vero cells at 1×10^5 cells/mL and incubated until the monolayers reached approximately 90% confluence, typically for 18-24 h. After washing the cells twice with DMEM (Dulbecco's Modified Eagle Medium) medium, 50 μL/well were added of the peptide or additive dilutions to be evaluated (Triton ^X-100™ dissolved in PBS was used as positive toxicity control) and the plates were incubated at 37° C. under a 5% CO2 atmosphere for 2 or 24 h. Two different procedures were then employed to measure toxicity: • a) A 2 mg/mL solution of MTT in PBS was added (50 μL/well) and the plates were incubated for further 4 h at 37° C., 5% CO2. The medium was then removed, and 100 μL/well of DMSO were then added to solubilize formazan precipitates. Finally, the optical density (OD) of the supernatants at a wavelength of 540 nm was measured using a plate reader (Sensident Scan™, Merck, Germany). • b) The plates were washed with 200 μL/well of DMEM medium and then a trypsin solution (Sigma, USA) was added at 50 μL/well. After inactivating the trypsin by adding 150 μL/well of DMEM supplemented with 10% FBS, the cells were counted using the Trypan Blue (Gibco, USA) vital stain. The data were processed using the statistical software package Prism v5.3 (GraphPad, USA), using non-linear regression to fit them to a log10 (concentration) vs response curve.
# [2] = Light scattering aggregation kinetics; type: physicochemical
# Description: Light scattering was used to monitor the aggregation of peptide PHB4. The measurements were performed on a Shimadzu™ RF-5301PC (Shimadzu, Japan) spectrofluorimeter, acquiring data with the software provided by the instrument manufacturer. The wavelengths of the incident light beam (excitation) and the detector (emission) were set to 320 nm, using excitation and emission apertures of 5 nm. The scattering of light due to the peptide was calculated by subtracting, from the intensity of the light dispersed by the peptide, the intensity of the light dispersed by a solution without peptide (blank). Variations on light scattering due to the dissolution of the peptide in PBS were studied by acquiring data in time course mode, with a measurement frequency of 1 or 2 per second. The solutions of PHB4 in PBS were prepared by mixing one part of a solution of the peptide in water with one part of a PBS 2X solution.
# DENV2 strain S16803 = test system: DENV2 strain S16803
# Description: The antiviral activity of peptide PHB4 was evaluated after treatments facilitating its aggregation or in the presence of different agents that modulate aggregation, with the purpose of examining their effect on the inhibitory activity of this peptide for the infection of Huh7.5 cells with DENV2 strain S16803. Huh7.5, a human hepatoma-derived cell line, was selected not only because it is permissive for DENV2, but because of its relevance as an experimental system from the viewpoint of DENV pathogenesis (Lin Y L, et al. (2000) J Med Virol.; 60(4):425-31).
# Antiviral activity was evaluated in virus yield assays, in which 80-90% confluent Huh7.5 monolayers were washed twice with non-supplemented DMEM and then infected at a m.o.i of 0.01 for 2 h at 37° C. and 5% CO2 in the presence of the different peptide preparations, after which the viral inoculum was removed by washing with non-supplemented DMEM, and the cells were grown in DMEM supplemented with 2% FBS. Cell supernatants were collected at 24 h p.i., and virus yields were determined by titrating the supernatant in a plaque formation assay (Morens D. M., et al. (1985). N. J. Clin. Microbiology; 22: 250-254).
# Therefore, a first series of assays was set up in which, starting from a 20 μM solution of the peptide in water, dilutions were prepared in MEM spanning the 10-0.01 μM concentration range, which were then incubated in parallel at 10° C. and 37° C. for 2 hours and then used in a viral inhibition assay. Non-incubated peptide dilutions (that is, prepared right before the viral inhibition assay) were used as controls.
# A second experiment was designed to determine the influence of aggregation time on the antiviral potency of peptide PHB4 (FIG. 18). […] This incubation with HSA was performed in parallel at either 10° C. or 37° C.
# DENV2 = assay: In vivo protection assay, intracranial challenge, DENV2; parameters: species or system Balb/c mice; settings: 30 μg peptide inoculated intracranially with 10 median lethal doses, 21 days
# Description: An experiment was set up to evaluate the in vivo antiviral activity of peptide PHB4 and compare it to that of peptide HDIII3CL. For this purpose, groups of 12 adult Balb/c mice (20 g average body weight) were anesthetized by ether inhalation and inoculated intracranially with 20 μL of viral preparations containing 10 times the median lethal dose of this model and the peptide to be evaluated. The animals recovered quickly and already appeared alert five minutes after the treatment, and were monitored afterwards for 21 days. The data were evaluated using the Kaplan-Meier logarithmic rank test.
smiles,measurement,setting,value
CC[C@H](C)[C@@H]1NC(=O)[C@H](Cc2ccccc2)NC(=O)[C@H](Cc2c[nH]c3ccccc23)NC(=O)[C@H](CC(N)=O)NC(=O)[C@H](C(C)C)NC(=O)[C@H](CCCCN)NC(=O)[C@H](Cc2c[nH]c3ccccc23)NC(=O)[C@H](CCCCN)NC(=O)[C@H]2CCCN2C(=O)[C@H](CCCNC(=N)N)NC(=O)[C@H]([C@@H](C)O)NC(=O)[C@H](Cc2c[nH]c3ccccc23)NC(=O)[C@H](Cc2ccc(O)cc2)NC(=O)[C@H](C(C)C)NC(=O)[C@H](CCC(=O)O)NC(=O)[C@H]([C@@H](C)CC)NC(=O)[C@@H](N)CSSC[C@@H](C(=O)N[C@@H](CCCCN)C(=O)N[C@@H](CCCCN)C(=O)N[C@@H](CCCCN)C(N)=O)NC1=O [PHB4] (H-CIEVYWTR[dP]KWKVNWFICKKK-NH2; disulfide 1-18; N-terminus assumed),CC50,[1],13 µM
same,Maximum of ratio of dispersed light relative to time zero,[2]; 5 μM peptide in PBS,11
same,Maximum of ratio of dispersed light relative to time zero,[2]; 10 μM peptide in PBS,7
same,Latency period before increase of dispersed light,[2]; dissolved into PBS,< 2 min
same,Variation in potency with incubation temperature,DENV2 strain S16803; 10° C. vs 37° C. pre-incubation,24 fold
same,IC100,"DENV2 strain S16803; Huh7.5 cells, non-incubated peptide in MEM",10 µM
same,IC50,"DENV2 strain S16803; read-out: IC50, 2 hrs-10° C., Huh7.5 cells, peptide pre-incubated in MEM 2 h at 10° C.",0.037 µM
same,IC50,"DENV2 strain S16803; read-out: IC50, 2 hrs-37° C., Huh7.5 cells, peptide pre-incubated in MEM 2 h at 37° C.",0.89 µM
same,IC50,"DENV2 strain S16803; read-out: IC50, no incubation, Huh7.5 cells, peptide dissolved in MEM, non-incubated",0.16 µM
same,Protection (%) DENV2,DENV2,100*** %
